# Ends that are not written are not given here.
# Assays:
# Type in all cases: cell-based
# [1] = biological target: T1, GALR3 mutant L^184M,V^186I,A^190V (Homo sapiens, UniProt O60755, A190V/L184M/V186I); experiment: SRE-luc luciferase assay, GALR3 L184M,V186I,A190V; conditions: GALR3 L^184M,V^186I,A^190V; SRE-luc in HEK293 Gqi cells, ligand 6 h; mean ± S.E.; SEM
# T1 construct: expressed in transfected cells; host or cells: HEK293 cells stably expressing Gqi
# Text: (§1) For domain swapping between GALR2 and GALR3, individual cDNA fragments of interest were amplified by polymerase chain reaction (PCR) with Pfu polymerase (ELPIS Biotech, Daejeon, Korea) and two specific primers, one corresponding to the 5' or 3' end of the GALR2 or GALR3 cDNA and the other to the region of overlap between the two receptors. The two resulting fragments, one from GALR2 and the other from GALR3, were subjected to a second round of PCR to generate the chimeric cDNAs. To construct single, double-, triple-, pentuple-, hextuple-, and septuple-mutant receptors, amino acids of GALR3 were substituted for the amino acids at the corresponding positions in GALR2 using PCR-based site-directed mutagenesis. All of the chimeric constructs were cloned into the pcDNA3 expression vector at HindⅢ and XbaⅠ sites. The DNA sequences of the chimeras were verified by automatic sequencing. […] The luciferase activity in 50 μl cell extract was determined using a luciferase assay system according to the standard protocol for the Synergy 2 Multi-Mode Microplate Reader (BioTek, Winooski, VT, USA). […] The concentrations of agonists that induced half-maximal stimulation (EC50) were calculated using the GraphPad PRISM5 software (GraphPad software, Inc., San Diego, CA). […]
# [2] = biological target: T2, GALR3 mutant A^190V,A^191F,G^192S (Homo sapiens, UniProt O60755, A190V/A191F/G192S); experiment: SRE-luc luciferase assay, GALR3 A190V,A191F,G192S; conditions: GALR3 A^190V,A^191F,G^192S; SRE-luc in HEK293 Gqi cells, ligand 6 h; mean ± S.E.; SEM
# T2 construct: expressed in transfected cells; host or cells: HEK293 cells stably expressing Gqi
# T2 sequence (O60755 whole entry A190V/A191F/G192S): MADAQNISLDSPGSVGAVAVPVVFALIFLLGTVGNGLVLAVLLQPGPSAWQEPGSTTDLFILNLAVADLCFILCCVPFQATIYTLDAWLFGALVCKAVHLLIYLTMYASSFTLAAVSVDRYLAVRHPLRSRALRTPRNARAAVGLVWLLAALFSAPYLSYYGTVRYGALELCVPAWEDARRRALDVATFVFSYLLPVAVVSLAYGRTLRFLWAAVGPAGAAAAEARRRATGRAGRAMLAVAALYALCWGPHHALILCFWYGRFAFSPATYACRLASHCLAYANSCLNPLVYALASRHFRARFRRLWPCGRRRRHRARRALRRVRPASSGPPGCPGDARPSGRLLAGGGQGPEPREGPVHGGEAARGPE
# Text: as §1
# [3] = biological target: T3, GALR3 mutant L^184M,V^186I,A^187C, A^190V,A^191F (Homo sapiens, UniProt O60755, A187C/A190V/A191F/L184M/V186I); experiment: SRE-luc luciferase assay, GALR3 pentuple mutant (A191F); conditions: GALR3 L^184M,V^186I,A^187C, SRE-luc in HEK293 Gqi cells, ligand 6 h, mean ± S.E., SEM
# T3 construct: expressed in transfected cells; host or cells: HEK293 cells stably expressing Gqi
# T3 sequence (O60755 whole entry L184M/V186I/A187C/A190V/A191F): as the sequence (O60755 whole entry A190V/A191F/G192S) above, with L184M, V186I, A187C, S192G counted along it
# Text: as §1
# [4] = biological target: T4, GALR3 mutant L^184M,V^186I,A^187C, A^190V,G^192S (Homo sapiens, UniProt O60755, A187C/A190V/G192S/L184M/V186I); experiment: SRE-luc luciferase assay, GALR3 pentuple mutant (G192S); conditions: GALR3 L^184M,V^186I,A^187C, SRE-luc in HEK293 Gqi cells, ligand 6 h, mean ± S.E., SEM
# T4 construct: expressed in transfected cells; host or cells: HEK293 cells stably expressing Gqi
# T4 sequence (O60755 whole entry L184M/V186I/A187C/A190V/G192S): as the sequence (O60755 whole entry A190V/A191F/G192S) above, with L184M, V186I, A187C, F191A counted along it
# Text: as §1
# [5] = biological target: T5, GALR3 single mutant V^186I (Homo sapiens, UniProt O60755, V186I); experiment: SRE-luc luciferase assay, GALR3 V186I; conditions: GALR3 V^186I; SRE-luc in HEK293 Gqi cells, ligand 6 h; mean ± S.E.; SEM
# T5 construct: expressed in transfected cells; host or cells: HEK293 cells stably expressing Gqi
# T5 sequence (O60755 whole entry V186I): as the sequence (O60755 whole entry A190V/A191F/G192S) above, with V186I, V190A, F191A, S192G counted along it
# Text: as §1
# [6] = biological target: T6, GALR3 single mutant L^184M (Homo sapiens, UniProt O60755, L184M); experiment: SRE-luc luciferase assay, GALR3 L184M; conditions: GALR3 L^184M; SRE-luc in HEK293 Gqi cells, ligand 6 h; mean ± S.E.; SEM
# T6 construct: expressed in transfected cells; host or cells: HEK293 cells stably expressing Gqi
# T6 sequence (O60755 whole entry L184M): as the sequence (O60755 whole entry A190V/A191F/G192S) above, with L184M, V190A, F191A, S192G counted along it
# Text: as §1
# [7] = biological target: T7, GALR3 single mutant A^190V (Homo sapiens, UniProt O60755, A190V); experiment: SRE-luc luciferase assay, GALR3 A190V; conditions: GALR3 A^190V; SRE-luc in HEK293 Gqi cells, ligand 6 h; mean ± S.E.; SEM
# T7 construct: expressed in transfected cells; host or cells: HEK293 cells stably expressing Gqi
# T7 sequence (O60755 whole entry A190V): as the sequence (O60755 whole entry A190V/A191F/G192S) above, with F191A, S192G counted along it
# Text: as §1
# [8] = biological target: T8, GALR3 single mutant A^187C (Homo sapiens, UniProt O60755, A187C); experiment: SRE-luc luciferase assay, GALR3 A187C; conditions: GALR3 A^187C; SRE-luc in HEK293 Gqi cells, ligand 6 h; mean ± S.E.; SEM
# T8 construct: expressed in transfected cells; host or cells: HEK293 cells stably expressing Gqi
# T8 sequence (O60755 whole entry A187C): as the sequence (O60755 whole entry A190V/A191F/G192S) above, with A187C, V190A, F191A, S192G counted along it
# Text: as §1
# T1 sequence (O60755 whole entry L184M/V186I/A190V): as the sequence (O60755 whole entry A190V/A191F/G192S) above, with L184M, V186I, F191A, S192G counted along it
Compound,EC50 [1] [nM],EC50 [2] [nM],EC50 [3] [nM],EC50 [4] [nM],EC50 [5] [nM],EC50 [6] [nM],EC50 [7] [nM],EC50 [8] [nM]
"CSCC[C@H](NC(=O)[C@H](C)NC(=O)[C@H](CCC(N)=O)NC(=O)[C@@H]1CCCN1C(=O)[C@@H](NC(=O)[C@H](Cc1c[nH]c2ccccc12)NC(=O)[C@@H](N)CC(N)=O)[C@@H](C)O)C(=O)N[C@@H](CC(C)C)C(=O)N[C@@H](Cc1ccc(O)cc1)C(=O)N[C@@H](CC(C)C)C(=O)N[C@@H](CCCCN)C(=O)NCC(=O)N[C@@H](C)C(=O)N[C@@H](CCC(N)=O)C(N)=O [SPX, reference compound]",49 ± 16.6,33.9 ± 11,50.1 ± 16.2,33.9 ± 9.89,141 ± 45.8,46.8 ± 15.9,77.6 ± 18.7,115 ± 27.7
NWTPQAMLYLKGPQ-NH2 [P^13-SPX],324 ± 89.2,123 ± 39.8,141 ± 36.5,145 ± 24.3,513 ± 158,437 ± 89.8,468 ± 105,550 ± 151
